{"source": "patent US20160354333A1", "about": "“COMPOSITIONS OF POLYUNSATURATED FATTY ACIDS AND METHODS OF USE THEREOF” (UND Life Sciences, LLC, priority 2015, published 2016)", "key": {"cancer cells": {"tested_on": "cancer cells", "conditions": "72 hrs", "quoted_text": "1×10^4 cancer cells or normal cells were incubated with the GLA composition for 72 hrs and viability of the cells in vitro determined."}, "IMR-32 cells": {"tested_on": "IMR-32 cells", "assay": "Growth of IMR-32 cells", "type": "cell-based", "parameters": "unit of the concentration uncertain", "description": "hypercalcemia, tumor cancer cell proliferation, tumor angiogenesis and resistance of tumor to anti-VEGF therapy (see FIG. 1). In addition, PGE2 may have the ability to modulate NO generation. […] Though this growth promoting action of indomethacin and NDGA could be attributed to their non-specific anti-oxidant actions, it is equally possible that some unknown products have been generated from PUFAs that have growth promoting actions. […] Accordingly, treatment of tumor cells with PUFAs according to embodiments of the invention is believed to be a viable treatment method for cancers, such as glioma."}, "tumor cells [1]": {"tested_on": "tumor cells", "assay": "Tumoricidal action: ability to induce apoptosis of tumor cells", "type": "cell-based", "description": "For instance, GLA is metabolized in the tumor cells to form 15-, 12- and 8-OH 20 carbon and 13-OH 18 carbon fatty acid derivatives that seem to be responsible for the apoptosis of tumor cells. In contrast to this, DGLA could go through an exclusive C-8 oxygenation pathway during COX-catalyzed lipid peroxidation in addition to a C-15 oxygenation pathway shared by both DGLA and AA, and that the exclusive C-8 oxygenation could lead to the production of distinct DGLA's free radical derivatives that may be correlated with DGLA's anti-proliferation activity. As shown below DGLA can go through a unique C-8 oxygenation reaction pathway, in addition to a C-15 oxygenation pathway shared by both DGLA and AA.\nsimilar to the one that is formed from DGLA as described above) product, instead of the more common aldehyde. Thus, it is evident that the peroxidation products formed from GLA, DGLA and AA are totally different, and this may account for the differences in their tumoricidal action wherein GLA>DGA>AA with regard to their ability to induce apoptosis of tumor cells."}, "[2]": {"tested_on": "IFN-sensitive / IFN-resistant tumor cells", "assay": "Apoptosis and lipid droplet accumulation in IFN-sensitive and IFN-resistant tumor cells", "type": "cell-based", "conditions": "IFN-resistant cells pre-treated with GLA/AA, then exposed to IFN", "description": "The present inventor also unexpectedly discovered that the anti-cancer actions of interferon (IFN) and tumor necrosis factor-a (TNF-a) need the presence of substantial amounts of cellular content of GLA, AA, EPA and DHA (˜GLA≧AA>EPA>DHA)."}, "[3]": {"tested_on": "bone marrow cells of mice", "assay": "Side effects of gamma-radiation and cis-platinum on bone marrow cells of mice", "type": "in vivo", "description": "Thus, it appears that when PUFAs and conventional anti-cancer drugs/agents are given together they not only act to potentiate the cytotoxic action of each other on the tumor cells and thus, produce synergistic and/or additive action on their ability to eliminate the tumor cells but it will also lead to elimination, reduction, or amelioration of the side effects of conventional anti-cancer agents. Since, PUFAs are able to potentiate the cytotoxic action(s) of conventional anti-cancer drugs (agents) and cytokines; it is also possible that this will lead to a significant reduction in the doses of these latter agents without compromising the ultimate benefit namely, elimination of tumor cells or the tumor. Accordingly, certain embodiments are directed to methods comprising administering a PUFA (e.g., GLA) containing compositions as described herein and a conventional anti-cancer drug to a subject in need thereof."}, "cancer": {"tested_on": "cancer", "conditions": "free acid form versus other forms", "description": "In general, it was believed that the potency of actions of a free acid form is equal to or similar to sodium salt, ethyl ester, methyl ester or other forms of salts, esters, glycerides, amides, or phospholipids, or alkylated, alkoxylated, halogenated, sulfonated, or phosphorylated forms of the fatty acid."}, "[4]": {"protocol": "In a separate experiment, GLA was dissolved in saline/PBS (pH 7.4) comprising 0.01% ethanol at 37° C. or saline/PBS (pH 7.4), and different concentrations of lithium was added. At the end of the incubation time the concentration of GLA present was tested. […] The same test system is used to test the effect of Mg, Mn, Zn, Fe, Cu salts on the stability of GLA. The concentrations of these metals used are same as that of Lithium."}, "[5]": {"conditions": "0.01% ethanol/saline/PBS pH 7.4 at 37° C. versus saline/PBS, no lithium", "description": "FIG. 7 is additional stability data for GLA solutions comprising 0.01% ethanol/saline/PBS or saline/PBS without added lithium."}, "tumor cells [6]": {"tested_on": "tumor cells", "conditions": "solvent (ethyl alcohol) content above 0.01% and lower than 0.001%"}, "[7]": {"conditions": "1 mg GLA, 0.01% ethanol PBS/saline; GLA:lithium ratio exceeding about 1:0.01", "protocol": "The effect of lithium as an exemplary stabilizing agent in compositions of GLA was tested as follows. To 1 mg (1000 μg) of GLA dissolved in a solution of PBS/saline comprising 0.01% ethanol was added different concentrations of lithium (as lithium chloride), and after a specific period of incubation the concentration of GLA present in the solution was tested."}, "normal cells": {"tested_on": "normal cells", "conditions": "10 μg/ml GLA, 1×10^4 cells, 72 hrs", "description": "FIG. 9 provides cytotoxicity data in normal cells for GLA solutions in varying concentrations of ethanol."}}, "note": "Like-named read-outs stand apart in the source and are kept apart here.", "data": [{"smiles": "CCO", "note": "[ethanol]", "values": [{"measurement": "concentration of ethanol resulting in cell death", "setting": "cancer cells; with 10 μg/ml GLA in saline/PBS", "value": "above 0.01%"}]}, {"smiles": "CCCCC[C@H](O)/C=C/C=C\\C=C\\C=C\\[C@@H](O)[C@@H](O)CCCC(=O)O", "note": "[LXA4]", "values": [{"measurement": "growth of IMR-32 cells", "setting": "IMR-32 cells", "value": "inhibited the growth of IMR-32 cells"}]}, {"smiles": "COc1ccc2c(c1)c(CC(=O)O)c(C)n2C(=O)c1ccc(Cl)cc1", "note": "[indomethacin]", "values": [{"measurement": "growth of IMR-32 cells", "setting": "IMR-32 cells; 60 (unit uncertain)", "value": "enhanced the growth of IMR-32 cells"}]}, {"smiles": "CCCCC/C=C\\C/C=C\\C/C=C\\CCCCCCC(=O)O", "note": "[DGLA, di-homo gamma linolenic acid]", "values": [{"measurement": "rank order of ability to induce apoptosis of tumor cells", "setting": "tumor cells [1]", "value": "GLA>DGA>AA"}]}, {"smiles": "CCCCC[C@H](O)/C=C/[C@H]1[C@H](O)CC(=O)[C@@H]1C/C=C\\CCCC(=O)O", "note": "[PGE2]", "values": [{"measurement": "growth of IMR-32 cells", "setting": "IMR-32 cells", "value": "growth inhibitory action"}]}, {"smiles": "CCCCC[C@H](O)/C=C/[C@H]1[C@H](O)CC(=O)[C@@H]1CCCCCCC(=O)O", "note": "[PGE1]", "values": [{"measurement": "growth of IMR-32 cells", "setting": "IMR-32 cells", "value": "growth inhibitory action"}]}, {"smiles": "CC(Cc1ccc(O)c(O)c1)C(C)Cc1ccc(O)c(O)c1", "note": "(stereo not shown) [nordihydroguaiaretic acid]", "values": [{"measurement": "growth of IMR-32 cells", "setting": "IMR-32 cells; 20 (unit uncertain)", "value": "enhanced the growth of IMR-32 cells"}]}, {"smiles": "CCCCC/C=C\\C\\C=C/C=C/C=C/[C@@H](SC[C@H](N)C(=O)NCC(=O)O)[C@@H](O)CCCC(=O)O", "note": "[LTD4]", "values": [{"measurement": "growth of IMR-32 cells", "setting": "IMR-32 cells", "value": "growth inhibitory action"}]}, {"smiles": "CCCCC/C=C\\C/C=C\\C/C=C\\C/C=C\\CCCC(=O)O", "note": "[AA, arachidonic acid, reference compound]", "values": [{"measurement": "rank order of ability to induce apoptosis of tumor cells", "setting": "tumor cells [1]", "value": "GLA>DGA>AA"}, {"measurement": "apoptosis and lipid droplets", "setting": "[2]", "value": "both induction of apoptosis and accumulation of lipid droplets in the tumor cells were seen"}, {"measurement": "side effects of gamma-radiation and cis-platinum to bone marrow cells", "setting": "[3]", "value": "prevent or ameliorate the side effects"}]}, {"smiles": "CCCCC/C=C\\C/C=C\\C/C=C\\CCCCC(=O)O", "note": "[GLA, gamma-linolenic acid]", "values": [{"measurement": "potency of anti-cancer action", "setting": "cancer", "value": "more potent than sodium salt, ethyl ester, methyl ester"}, {"measurement": "rank order of ability to induce apoptosis of tumor cells", "setting": "tumor cells [1]", "value": "GLA>DGA>AA"}, {"measurement": "concentration of GLA relative to lithium", "setting": "[4]; Mg, Mn, Zn, Fe, Cu salts, same concentrations and incubation periods as lithium", "value": "decrease the concentration of GLA"}, {"measurement": "stability of GLA (percentage of original GLA remaining)", "setting": "[4]; comparison solutions, printed as 'solutions with ethanol'", "value": "less stable"}, {"measurement": "stability of GLA (percentage of original GLA remaining)", "setting": "[4]; saline/PBS pH 7.4 with 0.01% ethanol at 37° C. plus lithium", "value": "stabilizing effect"}, {"measurement": "generation of LXA4", "setting": "RIN cells; PUFAs 15 μg, pretreatment with alloxan, simultaneous treatment with STZ", "value": "greater than or equal to all other fatty acids tested"}, {"measurement": "formation of LXA4", "setting": "RIN cells; studies performed in support of the invention", "value": "enhances the formation of LXA4"}, {"measurement": "background death of cells", "setting": "cancer cells; 10 μg/ml GLA, 1×10^4 cells", "value": "10-15%"}, {"measurement": "stability of GLA (percentage of original GLA remaining)", "setting": "[5]", "value": "stabilizing effect"}, {"measurement": "activity, stability and tumoricidal action", "setting": "tumor cells [6]", "value": "relatively inactive, unstable and its tumoricidal action inefficient"}, {"measurement": "apoptosis and lipid droplets", "setting": "[2]", "value": "both induction of apoptosis and accumulation of lipid droplets in the tumor cells were seen"}, {"measurement": "stability of GLA (percentage of original GLA remaining)", "setting": "[7]", "value": "stability of GLA decreased"}, {"measurement": "background death of cells", "setting": "normal cells", "value": "10-15%"}, {"measurement": "side effects of gamma-radiation and cis-platinum to bone marrow cells", "setting": "[3]", "value": "prevent or ameliorate the side effects"}]}]}
